# In US20090018111A1, “Novel Antimicrobial Medicament” (priority 2004, published 2009):
# Like-named read-outs stand apart in the source and are kept apart here.
# Key:
# Assay in all cases: Sensitivity test (agar dilution)
# S. maltophilia IID1275 = type: cell-based, Stenotrophomonas maltophilia; details: Stenotrophomonas maltophilia, read-out: MIC
# In short: (§1)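 Standard Japanese agar dilution method. Drugs alone or combined were serially halved in Mueller Hinton agar, inoculated with overnight (37° C) cultures at about 10^6 CFU/ml. Values are MICs.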
# Str. pyogenes Cook = type: cell-based, Streptococcus pyogenes; details: Streptococcus pyogenes, read-out: MIC
# In short: as §1
# E. faecium ATCC19434 = type: cell-based, Enterococcus faecium
# In short: as §1
# M. catarrhalis ATCC25238 = type: cell-based, Moraxella catarrhalis; details: Moraxella catarrhalis, read-out: MIC
# In short: as §1
# M. catarrhalis ATCC8176 = type: cell-based, Moraxella catarrhalis; details: Moraxella catarrhalis, read-out: MIC
# In short: as §1
# E. cloacae GN7471 = type: cell-based, Enterobacter cloacae; details: Enterobacter cloacae, read-out: MIC
# In short: as §1
# P. vurgalis OX-19 = type: cell-based, Proteus vulgaris; details: Proteus vulgaris, read-out: MIC
# In short: as §1
# P. vulgaris GN7919 = type: cell-based, Proteus vulgaris; details: Proteus vulgaris, read-out: MIC
# In short: as §1
# C. freundii GN346 = type: cell-based, Citrobacter freundii; details: Citrobacter freundii, read-out: MIC
# In short: as §1
# [1] = system: S. aureus SP-7928 (homo-MRSA); type: cell-based, Staphylococcus aureus; details: Staphylococcus aureus, MRSA, read-out: MIC
# In short: as §1
# [2] = system: S. aureus MS94088 (hetero-MRSA); type: cell-based, Staphylococcus aureus; details: Staphylococcus aureus, MRSA
# In short: as §1
# S. aureus 209P = type: cell-based, Staphylococcus aureus; details: Staphylococcus aureus, 209P, read-out: MIC
# In short: as §1
# S. epidermidis IAM1296 = type: cell-based, Staphylococcus epidermidis; details: Staphylococcus epidermidis, read-out: MIC
# In short: as §1
# [3] = Concomitant drug (MEPM:SM = 2:1)
compound,measurement,setting,value
"C[C@@H](O)[C@H]1C(=O)N2C(C(=O)O)=C(S[C@@H]3CN[C@H](C(=O)N(C)C)C3)[C@H](C)[C@H]12 [MEPM, meropenem]",MIC,"S. maltophilia IID1275; IID1275, Concomitant (MEPM:SM = 1:1)",> 32 µg/mL
same,MIC,"S. maltophilia IID1275; IID1275, Concomitant (MEPM:SM = 1:2)",> 32 µg/mL
same,MIC,"S. maltophilia IID1275; IID1275, Concomitant (MEPM:SM = 1:4)",> 32 µg/mL
same,MIC,"S. maltophilia IID1275; IID1275, Concomitant drug (MEPM:SM = 2:1)",> 32 µg/mL
same,MIC,"S. maltophilia IID1275; IID1275, alone",> 32 µg/mL
same,MIC,Str. pyogenes Cook; Concomitant (MEPM:SM = 1:1),≤ 0.016 µg/mL
same,MIC,Str. pyogenes Cook; Concomitant (MEPM:SM = 1:2),≤ 0.016 µg/mL
same,MIC,Str. pyogenes Cook; Concomitant (MEPM:SM = 1:4),≤ 0.016 µg/mL
same,MIC,Str. pyogenes Cook; [3],≤ 0.016 µg/mL
same,MIC,Str. pyogenes Cook; alone,≤ 0.016 µg/mL
same,MIC,E. faecium ATCC19434; Concomitant (MEPM:SM = 1:2),0.125 µg/mL
same,MIC,"E. faecium ATCC19434; Enterococcus faecium, ATCC19434",0.125 µg/mL
same,MIC,"E. faecium ATCC19434; Enterococcus faecium, ATCC19434, Concomitant (MEPM:SM = 1:4), read-out: MIC",0.031 µg/mL
same,MIC,"E. faecium ATCC19434; Enterococcus faecium, ATCC19434, Concomitant drug (MEPM:SM = 2:1), read-out: MIC",0.5 µg/mL
same,MIC,"E. faecium ATCC19434; Enterococcus faecium, ATCC19434, alone, read-out: MIC",8 µg/mL
same,MIC,"M. catarrhalis ATCC25238; ATCC25238, Concomitant (MEPM:SM = 1:1)",≤ 0.016 µg/mL
same,MIC,"M. catarrhalis ATCC25238; ATCC25238, Concomitant (MEPM:SM = 1:2)",≤ 0.016 µg/mL
same,MIC,"M. catarrhalis ATCC25238; ATCC25238, Concomitant (MEPM:SM = 1:4)",≤ 0.016 µg/mL
same,MIC,"M. catarrhalis ATCC25238; ATCC25238, Concomitant drug (MEPM:SM = 2:1)",≤ 0.016 µg/mL
same,MIC,"M. catarrhalis ATCC25238; ATCC25238, alone",≤ 0.016 µg/mL
same,MIC,"M. catarrhalis ATCC8176; ATCC8176, Concomitant (MEPM:SM = 1:1)",≤ 0.016 µg/mL
same,MIC,"M. catarrhalis ATCC8176; ATCC8176, Concomitant (MEPM:SM = 1:2)",≤ 0.016 µg/mL
same,MIC,"M. catarrhalis ATCC8176; ATCC8176, Concomitant (MEPM:SM = 1:4)",≤ 0.016 µg/mL
same,MIC,"M. catarrhalis ATCC8176; ATCC8176, Concomitant drug (MEPM:SM = 2:1)",≤ 0.016 µg/mL
same,MIC,"M. catarrhalis ATCC8176; ATCC8176, alone",≤ 0.016 µg/mL
same,MIC,"E. cloacae GN7471; GN7471, Concomitant (MEPM:SM = 1:1)",0.031 µg/mL
same,MIC,"E. cloacae GN7471; GN7471, Concomitant (MEPM:SM = 1:2)",0.031 µg/mL
same,MIC,"E. cloacae GN7471; GN7471, Concomitant (MEPM:SM = 1:4)",0.031 µg/mL
same,MIC,"E. cloacae GN7471; GN7471, Concomitant drug (MEPM:SM = 2:1)",0.031 µg/mL
same,MIC,"E. cloacae GN7471; GN7471, alone",0.063 µg/mL
same,MIC,"P. vurgalis OX-19; OX19, Concomitant (MEPM:SM = 1:1)",≤ 0.016 µg/mL
same,MIC,"P. vurgalis OX-19; OX19, Concomitant (MEPM:SM = 1:2)",≤ 0.016 µg/mL
same,MIC,"P. vurgalis OX-19; OX19, Concomitant (MEPM:SM = 1:4)",≤ 0.016 µg/mL
same,MIC,"P. vurgalis OX-19; OX19, Concomitant drug (MEPM:SM = 2:1)",0.031 µg/mL
same,MIC,"P. vurgalis OX-19; OX19, alone",0.063 µg/mL
same,MIC,"P. vulgaris GN7919; GN7919, Concomitant (MEPM:SM = 1:1)",0.031 µg/mL
same,MIC,"P. vulgaris GN7919; GN7919, Concomitant (MEPM:SM = 1:2)",0.031 µg/mL
same,MIC,"P. vulgaris GN7919; GN7919, Concomitant (MEPM:SM = 1:4)",0.031 µg/mL
same,MIC,"P. vulgaris GN7919; GN7919, Concomitant drug (MEPM:SM = 2:1)",0.031 µg/mL
same,MIC,"P. vulgaris GN7919; GN7919, alone",0.063 µg/mL
same,MIC,"C. freundii GN346; GN346, Concomitant (MEPM:SM = 1:1)",0.031 µg/mL
same,MIC,"C. freundii GN346; GN346, Concomitant (MEPM:SM = 1:2)",0.031 µg/mL
same,MIC,"C. freundii GN346; GN346, Concomitant (MEPM:SM = 1:4)",0.031 µg/mL
same,MIC,"C. freundii GN346; GN346, Concomitant drug (MEPM:SM = 2:1)",0.031 µg/mL
same,MIC,"C. freundii GN346; GN346, alone",0.063 µg/mL
same,MIC,[1]; Concomitant (MEPM:SM = 1:1),1 µg/mL
same,MIC,[1]; Concomitant (MEPM:SM = 1:2),1 µg/mL
same,MIC,[1]; Concomitant (MEPM:SM = 1:4),0.5 µg/mL
same,MIC,[1]; [3],2 µg/mL
same,MIC,[1]; alone,32 µg/mL
same,MIC,[2],0.125 µg/mL
same,MIC,"[2]; Concomitant (MEPM:SM = 1:1), read-out: MIC",0.25 µg/mL
same,MIC,"[2]; Concomitant (MEPM:SM = 1:4), read-out: MIC",0.063 µg/mL
same,MIC,"[2]; Concomitant drug (MEPM:SM = 2:1), read-out: MIC",0.5 µg/mL
same,MIC,"[2]; alone, read-out: MIC",4 µg/mL
same,MIC,S. aureus 209P; Concomitant (MEPM:SM = 1:1),≤ 0.016 µg/mL
same,MIC,S. aureus 209P; Concomitant (MEPM:SM = 1:2),≤ 0.016 µg/mL
same,MIC,S. aureus 209P; Concomitant (MEPM:SM = 1:4),≤ 0.016 µg/mL
same,MIC,S. aureus 209P; [3],≤ 0.016 µg/mL
same,MIC,S. aureus 209P; alone,0.063 µg/mL
same,MIC,"S. epidermidis IAM1296; IAM1296, Concomitant (MEPM:SM = 1:1)",≤ 0.016 µg/mL
same,MIC,"S. epidermidis IAM1296; IAM1296, Concomitant (MEPM:SM = 1:2)",≤ 0.016 µg/mL
same,MIC,"S. epidermidis IAM1296; IAM1296, Concomitant (MEPM:SM = 1:4)",≤ 0.016 µg/mL
same,MIC,"S. epidermidis IAM1296; IAM1296, Concomitant drug (MEPM:SM = 2:1)",0.063 µg/mL
same,MIC,"S. epidermidis IAM1296; IAM1296, alone",1 µg/mL
